Each structure is given as a SMILES string. Where only a bound is given, the exact number is not on record here.

The target in this experiment is Recombinant human ULK1 (1-649) (Homo sapiens (Human), UniProt O75385). Kind of experiment: ULK1 ADP Glo kinase activity assay, new method (ULKtide peptide substrate). As to conditions: 25° C., 40 minutes, read-out: ULK1 biochemical IC50. The gist of the method: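 GST-tagged human ULK1 (1-649) from Sf9 cells was reacted with ULKtide peptide and ATP for 40 min at 25 °C across 12-point compound dilutions from 10 μM. ADP formed was quantified by ADP-Glo luminescence; IC50 came from four-parameter fits relative to DMSO controls.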
Sequence of Recombinant human ULK1 (1-649) (O75385 1-649): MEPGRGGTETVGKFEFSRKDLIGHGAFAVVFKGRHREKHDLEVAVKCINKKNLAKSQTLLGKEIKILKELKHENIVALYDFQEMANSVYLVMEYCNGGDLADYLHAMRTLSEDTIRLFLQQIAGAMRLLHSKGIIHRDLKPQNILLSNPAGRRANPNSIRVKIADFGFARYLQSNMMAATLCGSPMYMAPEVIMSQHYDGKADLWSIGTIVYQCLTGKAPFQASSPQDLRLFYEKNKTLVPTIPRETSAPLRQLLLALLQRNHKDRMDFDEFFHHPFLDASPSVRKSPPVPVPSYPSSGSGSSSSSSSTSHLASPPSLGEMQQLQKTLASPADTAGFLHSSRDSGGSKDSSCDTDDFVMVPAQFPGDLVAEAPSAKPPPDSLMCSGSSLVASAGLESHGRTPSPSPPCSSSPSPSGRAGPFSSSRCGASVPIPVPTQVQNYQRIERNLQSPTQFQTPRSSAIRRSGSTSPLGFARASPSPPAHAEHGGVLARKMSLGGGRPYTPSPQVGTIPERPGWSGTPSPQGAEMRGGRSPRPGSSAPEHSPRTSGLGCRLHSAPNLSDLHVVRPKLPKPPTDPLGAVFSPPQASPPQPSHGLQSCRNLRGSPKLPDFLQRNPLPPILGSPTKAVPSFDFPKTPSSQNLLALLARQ
As for `C[C@H]1CN(c2ccc(Nc3ncc(C(F)(F)F)c(-c4cc5c(s4)C(=O)N(C4CC4)CCS5(=O)=O)n3)c(C3CC3)c2)CCN1C` [Example 332, (S)-4-cyclopropyl-7-(2-((2-cyclopropyl-4-(3,4-dimethylpiperazin-1-yl)phenyl)amino)-5-(trifluoromethyl)pyrimidin-4-yl)-3,4-dihydrothieno[2,3-f][1,4]thiazepin-5(2H)-one 1,1-dioxide], the IC50 was ≤ 5 nM.

For `CN1C[C@H]2C[C@@H]1CN2c1ccc(Nc2ncc(C(F)(F)F)c(-c3cc4c(s3)C(=O)N(C3COC3)CCS4(=O)=O)n2)c(C2CC2)c1` [Example 334, 7-(2-((2-cyclopropyl-4-((1R,4R)-5-methyl-2,5-diazabicyclo[2.2.1]heptan-2-yl)phenyl)amino)-5-(trifluoromethyl)pyrimidin-4-yl)-4-(oxetan-3-yl)-3,4-dihydrothieno[2,3-f][1,4]thiazepin-5(2H)-one 1,1-dioxide], the IC50 is ≤ 5 nM.

Turning to `CCc1cc(N2C[C@@H]3C[C@H]2CN3)ccc1Nc1ncc(C(F)(F)F)c(-c2cc3c(s2)C(=O)N(C2COC2)CCS3(=O)=O)n1` [Example 335, 7-(2-((4-((1S,4S)-2,5-diazabicyclo[2.2.1]heptan-2-yl)-2-ethylphenyl)amino)-5-(trifluoromethyl)pyrimidin-4-yl)-4-(oxetan-3-yl)-3,4-dihydrothieno[2,3-f][1,4]thiazepin-5(2H)-one 1,1-dioxide], the IC50 is ≤ 5 nM.

`CCc1cc(N2C[C@H]3C[C@@H]2CN3)ccc1Nc1ncc(C(F)(F)F)c(-c2cc3c(s2)C(=O)N(C2COC2)CCS3(=O)=O)n1` [Example 336, 7-(2-((4-((1R,4R)-2,5-diazabicyclo[2.2.1]heptan-2-yl)-2-ethylphenyl)amino)-5-(trifluoromethyl)pyrimidin-4-yl)-4-(oxetan-3-yl)-3,4-dihydrothieno[2,3-f][1,4]thiazepin-5(2H)-one 1,1-dioxide]: the 50% inhibitory concentration (IC50) is ≤ 5 nM.

Take `CCc1cc(N2C[C@H]3CC[C@@H](C2)N3)ccc1Nc1ncc(C(F)(F)F)c(-c2cc3c(s2)C(=O)N(C2COC2)CCS3(=O)=O)n1` [Example 337, 7-(2-((4-((1R,5S)-3,8-diazabicyclo[3.2.1]octan-3-yl)-2-ethylphenyl)amino)-5-(trifluoromethyl)pyrimidin-4-yl)-4-(oxetan-3-yl)-3,4-dihydrothieno[2,3-f][1,4]thiazepin-5(2H)-one 1,1-dioxide]: the concentration for half-maximal inhibition (IC50) was ≤ 5 nM.

Turning to `O=C1c2sc(-c3nc(Nc4ccc(N5CC6CC(C5)N6)cc4C4CC4)ncc3C(F)(F)F)cc2S(=O)(=O)CCN1C1CC1` [Example 338, 7-(2-((4-(3,6-diazabicyclo[3.1.1]heptan-3-yl)-2-cyclopropylphenyl)amino)-5-(trifluoromethyl)pyrimidin-4-yl)-4-cyclopropyl-3,4-dihydrothieno[2,3-f][1,4]thiazepin-5(2H)-one 1,1-dioxide], the IC50 was ≤ 5 nM.

Turning to `CN1C2CC1CN(c1ccc(Nc3ncc(C(F)(F)F)c(-c4cc5c(s4)C(=O)N(C4CC4)CCS5(=O)=O)n3)c(C3CC3)c1)C2` [Example 339, 4-cyclopropyl-7-(2-((2-cyclopropyl-4-(6-methyl-3,6-diazabicyclo[3.1.1]heptan-3-yl)phenyl)amino)-5-(trifluoromethyl)pyrimidin-4-yl)-3,4-dihydrothieno[2,3-f][1,4]thiazepin-5(2H)-one 1,1-dioxide], the 50% inhibitory concentration (IC50) is ≤ 5 nM.

For the compound `O=C1c2sc(-c3nc(Nc4ccc(N5CC6CC(C5)N6)cc4C4CC4)ncc3C(F)(F)F)cc2S(=O)(=O)CCN1C1COC1` [Example 340, 7-(2-((4-(3,6-diazabicyclo[3.1.1]heptan-3-yl)-2-cyclopropylphenyl)amino)-5-(trifluoromethyl)pyrimidin-4-yl)-4-(oxetan-3-yl)-3,4-dihydrothieno[2,3-f][1,4]thiazepin-5(2H)-one 1,1-dioxide], the IC50 was ≤ 5 nM.

Take `C[C@H]1CN(c2ccc(Nc3ncc(C(F)(F)F)c(-c4cc5c(s4)C(=O)N(C4COC4)CCS5(=O)=O)n3)c(C3CC3)c2)CCN1` [Example 341, (S)-7-(2-((2-Cyclopropyl-4-(3-methylpiperazin-1-yl)phenyl)amino)-5-(trifluoromethyl)pyrimidin-4-yl)-4-(oxetan-3-yl)-3,4-dihydrothieno[2,3-f][1,4]thiazepin-5(2H)-one 1,1-dioxide]: the IC50 was ≤ 5 nM.

With `C[C@H]1CN(c2ccc(Nc3ncc(C(F)(F)F)c(-c4cc5c(s4)C(=O)N(C4COC4)CCS5(=O)=O)n3)c(C3CC3)c2)CCN1C` [Example 342, (S)-7-(2-((2-cyclopropyl-4-(3,4-dimethylpiperazin-1-yl)phenyl)amino)-5-(trifluoromethyl)pyrimidin-4-yl)-4-(oxetan-3-yl)-3,4-dihydrothieno[2,3-f][1,4]thiazepin-5(2H)-one 1,1-dioxide], the IC50 is ≤ 5 nM.

For `C[C@@H]1CN(c2ccc(Nc3ncc(C(F)(F)F)c(-c4cc5c(s4)C(=O)N(C4CC4)CCS5(=O)=O)n3)c(C3CC3)c2)C[C@H](C)N1C` [Example 343, 4-Cyclopropyl-7-(2-((2-cyclopropyl-4-((3S,5R)-3,4,5-trimethylpiperazin-1-yl)phenyl)amino)-5-(trifluoromethyl)pyrimidin-4-yl)-3,4-dihydrothieno[2,3-f][1,4]thiazepin-5(2H)-one 1,1-dioxide], the IC50 was ≤ 5 nM.

For the compound `C[C@H]1CN(c2ccc(Nc3ncc(C(F)(F)F)c(-c4cc5c(s4)C(=O)N(C4COC4)CCS5(=O)=O)n3)c(C3CC3)c2)C[C@H](C)N1` [Example 344, 7-(2-((2-Cyclopropyl-4-((3S,5S)-3,5-dimethylpiperazin-1-yl)phenyl)amino)-5-(trifluoromethyl)pyrimidin-4-yl)-4-(oxetan-3-yl)-3,4-dihydrothieno[2,3-f][1,4]thiazepin-5(2H)-one 1,1-dioxide], the half-inhibitory concentration (IC50) is ≤ 5 nM.

Consider `O=C1c2sc(-c3nc(Nc4ccc(N5CCN[C@@H](CO)C5)cc4C4CC4)ncc3C(F)(F)F)cc2S(=O)(=O)CCN1C1CC1` [Example 345, (R)-4-cyclopropyl-7-(2-((2-cyclopropyl-4-(3-(hydroxymethyl)piperazin-1-yl)phenyl)amino)-5-(trifluoromethyl)pyrimidin-4-yl)-3,4-dihydrothieno[2,3-f][1,4]thiazepin-5(2H)-one 1,1-dioxide], for which the IC50 is ≤ 5 nM.

For the compound `CCc1cc(N2C[C@@H]3C[C@H]2CN3C)ccc1Nc1ncc(C(F)(F)F)c(-c2cc3c(s2)C(=O)N(C2COC2)CCS3(=O)=O)n1` [Example 346, 7-(2-((2-Ethyl-4-((1S,4S)-5-methyl-2,5-diazabicyclo[2.2.1]heptan-2-yl)phenyl)amino)-5-(trifluoromethyl)pyrimidin-4-yl)-4-(oxetan-3-yl)-3,4-dihydrothieno[2,3-f][1,4]thiazepin-5(2H)-one 1,1-dioxide], the IC50 lay in the range of 5 to 10 nM.

With `CCc1cc(N2C[C@H]3C[C@@H]2CN3C)ccc1Nc1ncc(C(F)(F)F)c(-c2cc3c(s2)C(=O)N(C2COC2)CCS3(=O)=O)n1` [Example 347, 7-(2-((2-ethyl-4-((1R,4R)-5-methyl-2,5-diazabicyclo[2.2.1]heptan-2-yl)phenyl)amino)-5-(trifluoromethyl)pyrimidin-4-yl)-4-(oxetan-3-yl)-3,4-dihydrothieno[2,3-f][1,4]thiazepin-5(2H)-one 1,1-dioxide], the IC50 was ≤ 5 nM.

Turning to `CCc1cc(N2C[C@H]3CC[C@@H](C2)N3C)ccc1Nc1ncc(C(F)(F)F)c(-c2cc3c(s2)C(=O)N(C2COC2)CCS3(=O)=O)n1` [Example 348, 7-(2-((2-ethyl-4-((1R,5S)-8-methyl-3,8-diazabicyclo[3.2.1]octan-3-yl)phenyl)amino)-5-(trifluoromethyl)pyrimidin-4-yl)-4-(oxetan-3-yl)-3,4-dihydrothieno[2,3-f][1,4]thiazepin-5(2H)-one 1,1-dioxide], the IC50 is ≤ 5 nM.

On to `CN1C2CC1CN(c1ccc(Nc3ncc(C(F)(F)F)c(-c4cc5c(s4)C(=O)N(C4COC4)CCS5(=O)=O)n3)c(C3CC3)c1)C2` [Example 349, 7-(2-((2-cyclopropyl-4-(6-methyl-3,6-diazabicyclo[3.1.1]heptan-3-yl)phenyl)amino)-5-(trifluoromethyl)pyrimidin-4-yl)-4-(oxetan-3-yl)-3,4-dihydrothieno[2,3-f][1,4]thiazepin-5(2H)-one 1,1-dioxide], for which the IC50 was ≤ 5 nM.

For the compound `C[C@@H]1CN(c2ccc(Nc3ncc(C(F)(F)F)c(-c4cc5c(s4)C(=O)N(C4COC4)CCS5(=O)=O)n3)c(C3CC3)c2)C[C@H](C)N1` [Example 350, 7-(2-((2-cyclopropyl-4-((3S,5R)-3,5-dimethylpiperazin-1-yl)phenyl)amino)-5-(trifluoromethyl)pyrimidin-4-yl)-4-(oxetan-3-yl)-3,4-dihydrothieno[2,3-f][1,4]thiazepin-5(2H)-one 1,1-dioxide], the IC50 was ≤ 5 nM.

In the case of `C[C@H]1CN(c2ccc(Nc3ncc(C(F)(F)F)c(-c4cc5c(s4)C(=O)N(C4COC4)CCS5(=O)=O)n3)c(C3CC3)c2)C[C@H](C)N1C` [Example 351, 7-(2-((2-cyclopropyl-4-((3S,5S)-3,4,5-trimethylpiperazin-1-yl)phenyl)amino)-5-(trifluoromethyl)pyrimidin-4-yl)-4-(oxetan-3-yl)-3,4-dihydrothieno[2,3-f][1,4]thiazepin-5(2H)-one 1,1-dioxide], the half-inhibitory concentration (IC50) was in the range of 5 to 10 nM.

As to `CN1CCN(c2ccc(Nc3ncc(C(F)(F)F)c(-c4cc5c(s4)C(=O)N(C4CC4)CCS5(=O)=O)n3)c(C3CC3)c2)C[C@@H]1CO` [Example 352, (R)-4-cyclopropyl-7-(2-((2-cyclopropyl-4-(3-(hydroxymethyl)-4-methylpiperazin-1-yl)phenyl)amino)-5-(trifluoromethyl)pyrimidin-4-yl)-3,4-dihydrothieno[2,3-f][1,4]thiazepin-5(2H)-one 1,1-dioxide], the IC50 is ≤ 5 nM.

For the compound `CCc1cc(N2CCN[C@@H](C)C2)ccc1Nc1ncc(C(F)(F)F)c(-c2cc3c(s2)C(=O)N(C2CC2)CCS3(=O)=O)n1` [Example 353, (S)-4-cyclopropyl-7-(2-((2-ethyl-4-(3-methylpiperazin-1-yl)phenyl)amino)-5-(trifluoromethyl)pyrimidin-4-yl)-3,4-dihydrothieno[2,3-f][1,4]thiazepin-5(2H)-one 1,1-dioxide], the IC50 is ≤ 5 nM.

The record behind these values is patent publication US20250144094A1 (Erasca, Inc., priority 2021, published 2025).
